# Data from patent US20220387608A1, “ADRENOMEDULLIN-ANALOGUES FOR LONG-TERM STABILIZATION AND THEIR USE” (Bayer Aktiengesellschaft, priority 2019, published 2022).
# Positions of bridges follow the written chain, without caps; N, C: chain ends. Non-standard residues stand in square brackets, D forms with d. Residues, ends and D or L forms follow the SMILES beside them. *: point of attachment. X1 = CN(C)c1ccc2c(c1)Oc1cc(N(C)C)ccc1C21OC(=O)c2ccc(C(=O)*)cc21; C18 diacid = O=C(O)CCCCCCCCCCCCCCCCC(=O)*; PEG3 = NCCOCCOCCOCCC(=O)O; Dap = NC[C@H](N)C(=O)O
# Columns and labels:
# [1] = Stability determination of TAMRA-labelled adrenomedullin analogues in human blood plasma; assay type: in vitro ADME; settings: 37° C., 10^-5 M, slow-decay phase half-life, read-out: t1/2 (slow) (converted)
# Procedure: The stability of the peptides was investigated using fluorescently labeled analogues, which were prepared as described above.
# The TAMRA-labeled analogues were dissolved in 1.5 m1 of human blood plasma to a concentration of 10^−5 M and incubated at 37° C. under constant shaking. Samples of 150 μl were taken at different time points and precipitated with 300 μl Ethanol/ACN (1:1) for at least 1 h at −20° C. After centrifugation for 30 s at 12000 rpm, the supernatant was collected and incubated at −20° C. for at least 3 h. Subsequently, it was transferred into Costar® Spin-X® Centrifuge Tube Filters (0.22 μm) and centrifuged for 1 h at 12000 rpm. The samples were analyzed by RP-HPLC using a VariTide RPC column (Agilent Technologies, 250 mm×4.6 mm, […], 200 Å) with linear gradients of 0.1% TFA in water and 0.08% TFA in ACN; fluorescence measurement (λex=525 nm; λem=572 nm) was used for the detection of the analogues and their N-terminal fragments. The percentage of intact peptide was determined by peak integration. The values of peaks containing additional cleavage fragments were corrected by comparing intensities of cleavage fragments and intact peptide using MALDI-MS analysis (UltraflexIII, Bruker). The stability of the peptides was calculated with GraphPad Prism 5 (GraphPad Software) using a two phase exponential decay function for the determination of slow-decay phase half-lives (ln(2)/Kslow; Kslow: rate constant of slow part of exponential decay).
# AM1R = molecular target: T1, AM1R (Homo sapiens, UniProt O60895+Q16602); assay: Activity determination in vitro: cAMP/CRE-luciferase reporter assay in HEK293 cells transiently co-transfected with CLR and RAMP2; assay type: cell-based
# T1 construct: EYFP; ECFP; expressed in transfected cells; host or cells: HEK-293 (transient co-transfection)
# How it was run: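 HEK-293 cells transiently co-transfected with CLR-EYFP, RAMP2-ECFP and a CRE-luc2P reporter, stimulated 3 h at 37° C with eight ligand concentrations in triplicate. Luminescence read by ONE-Glo, corrected to 5 μM forskolin, normalized to [G14]ADM(14-52) standard, and fitted by non-linear regression.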
# T1 sequence (Q16602 23-461): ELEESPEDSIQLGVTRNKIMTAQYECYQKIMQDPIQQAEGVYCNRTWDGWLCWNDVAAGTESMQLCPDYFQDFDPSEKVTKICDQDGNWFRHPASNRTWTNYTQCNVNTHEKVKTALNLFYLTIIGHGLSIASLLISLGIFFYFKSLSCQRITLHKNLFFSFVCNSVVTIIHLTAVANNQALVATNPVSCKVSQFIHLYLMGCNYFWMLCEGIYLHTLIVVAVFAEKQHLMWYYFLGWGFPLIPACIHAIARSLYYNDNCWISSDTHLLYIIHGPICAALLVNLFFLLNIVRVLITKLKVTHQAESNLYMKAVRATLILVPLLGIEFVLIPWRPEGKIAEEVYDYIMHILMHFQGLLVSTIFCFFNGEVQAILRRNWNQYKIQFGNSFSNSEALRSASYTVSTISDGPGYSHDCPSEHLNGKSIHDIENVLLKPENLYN
# T1 sequence (O60895 43-175): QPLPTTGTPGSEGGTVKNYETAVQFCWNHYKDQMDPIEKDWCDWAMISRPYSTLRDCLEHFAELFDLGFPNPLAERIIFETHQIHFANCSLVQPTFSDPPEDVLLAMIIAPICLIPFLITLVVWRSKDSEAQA
Structure (SMILES),half-life [1] [h],"Emax (AM1R; HEK293, normalized to [G14]ADM(14-52)) [%]","EC50 (AM1R; HEK293 with CLR/RAMP2, CRE-luciferase, 3 h stimulation) [nM]"
"CC[C@H](C)[C@H](NC(=O)[C@H](CCC(N)=O)NC(=O)[C@H](Cc1c[nH]cn1)NC(=O)[C@H](C)NC(=O)[C@H](CC(C)C)NC(=O)[C@H](CCCCN)NC(=O)[C@H](CCC(N)=O)NC(=O)[C@@H](NC(=O)[C@@H](NC(=O)[C@@H]1CCC(=O)NC[C@H](NC(=O)CNC(=O)[C@H](CCCCNC(=O)CCCCCCCCCCCCCCCCC(=O)O)NC(=O)c2ccc3c(c2)C2(OC3=O)c3ccc(N(C)C)cc3Oc3cc(N(C)C)ccc32)C(=O)N[C@@H](CCCNC(=N)N)C(=O)N[C@@H](Cc2ccccc2)C(=O)NCC(=O)N[C@@H]([C@@H](C)O)C(=O)N1)[C@@H](C)O)C(C)C)C(=O)N[C@@H](Cc1ccc(O)cc1)C(=O)N[C@@H](CCC(N)=O)C(=O)N[C@@H](Cc1ccccc1)C(=O)N[C@H](C(=O)N[C@@H](CC(=O)O)C(=O)N[C@@H](CCCCN)C(=O)N[C@@H](CC(=O)O)C(=O)N[C@@H](CCCCN)C(=O)N[C@@H](CC(=O)O)C(=O)N[C@@H](CC(N)=O)C(=O)N[C@H](C(=O)N[C@@H](C)C(=O)N1CCC[C@H]1C(=O)N[C@H]1CCCCNC(=O)C[C@@H](C(=O)N2CCC[C@H]2C(=O)N[C@@H](CCC(N)=O)C(=O)NCC(=O)N[C@@H](Cc2ccc(O)cc2)C(N)=O)NC(=O)[C@H]([C@@H](C)CC)NC(=O)[C@H](CCCCN)NC(=O)[C@H](CO)NC1=O)C(C)C)[C@@H](C)O [TAM-16] (X1-K(C18 diacid)G[Dap]RFGTETVQKLAHQIYQFTDKDKDNVAPKSKIDPQGY-NH2; lactam 3-8, 31-35)",> 144,–,–
"CC[C@H](C)[C@H](NC(=O)[C@H](CCC(N)=O)NC(=O)[C@H](Cc1c[nH]cn1)NC(=O)[C@H](C)NC(=O)[C@H](CC(C)C)NC(=O)[C@H](CCCCN)NC(=O)[C@H](CCC(N)=O)NC(=O)[C@@H](NC(=O)[C@@H](NC(=O)[C@@H]1CSSC[C@H](NC(=O)CNC(=O)CNC(=O)c2ccc3c(c2)C2(OC3=O)c3ccc(N(C)C)cc3Oc3cc(N(C)C)ccc32)C(=O)N[C@@H](CCCNC(=N)N)C(=O)N[C@@H](Cc2ccccc2)C(=O)NCC(=O)N[C@@H]([C@@H](C)O)C(=O)N1)[C@@H](C)O)C(C)C)C(=O)N[C@@H](Cc1ccc(O)cc1)C(=O)N[C@@H](CCC(N)=O)C(=O)N[C@@H](Cc1ccccc1)C(=O)N[C@H](C(=O)N[C@@H](CC(=O)O)C(=O)N[C@@H](CCCCN)C(=O)N[C@@H](CC(=O)O)C(=O)N[C@@H](CCCCN)C(=O)N[C@@H](CC(=O)O)C(=O)N[C@@H](CC(N)=O)C(=O)N[C@H](C(=O)N[C@@H](C)C(=O)N1CCC[C@H]1C(=O)N[C@@H](CCCNC(=N)N)C(=O)N[C@@H](CO)C(=O)N[C@@H](CCCCN)C(=O)N[C@H](C(=O)N[C@@H](CO)C(=O)N1CCC[C@H]1C(=O)N[C@@H](CCC(N)=O)C(=O)NCC(=O)N[C@@H](Cc1ccc(O)cc1)C(N)=O)[C@@H](C)CC)C(C)C)[C@@H](C)O [TAM-control, reference compound]",12,–,–
"CC[C@H](C)[C@H](NC(=O)[C@H](CCC(N)=O)NC(=O)[C@H](Cc1c[nH]cn1)NC(=O)[C@H](C)NC(=O)[C@H](CC(C)C)NC(=O)[C@H](CCCCN)NC(=O)[C@H](CCC(N)=O)NC(=O)[C@@H](NC(=O)[C@@H](NC(=O)[C@@H]1CCC(=O)NC[C@H](NC(=O)CNC(=O)[C@H](CCCCNC(=O)CCCCCCCCCCCCCCCCC(=O)O)NC(=O)c2ccc3c(c2)C2(OC3=O)c3ccc(N(C)C)cc3Oc3cc(N(C)C)ccc32)C(=O)N[C@@H](CCCNC(=N)N)C(=O)N[C@@H](Cc2ccccc2)C(=O)NCC(=O)N[C@@H]([C@@H](C)O)C(=O)N1)[C@@H](C)O)C(C)C)C(=O)N[C@@H](Cc1ccc(O)cc1)C(=O)N[C@@H](CCC(N)=O)C(=O)N[C@@H](Cc1ccccc1)C(=O)N[C@H](C(=O)NCCOCCOCCOCCC(=O)N[C@@H](CC(=O)O)C(=O)N[C@@H](CC(N)=O)C(=O)N[C@H](C(=O)N[C@@H](C)C(=O)N1CCC[C@H]1C(=O)N[C@H]1CCCCNC(=O)C[C@@H](C(=O)N2CCC[C@H]2C(=O)N[C@@H](CCC(N)=O)C(=O)NCC(=O)N[C@@H](Cc2ccc(O)cc2)C(N)=O)NC(=O)[C@H]([C@@H](C)CC)NC(=O)[C@H](CCCCN)NC(=O)[C@H](CO)NC1=O)C(C)C)[C@@H](C)O [TAM-17] (X1-K(C18 diacid)G[Dap]RFGTETVQKLAHQIYQFT[PEG3]DNVAPKSKIDPQGY-NH2; lactam 3-8, 28-32)",> 144,–,–
CC[C@H](C)[C@H](NC(=O)[C@H](CCC(N)=O)NC(=O)[C@H](Cc1c[nH]cn1)NC(=O)[C@H](C)NC(=O)[C@H](CC(C)C)NC(=O)[C@H](CCCCN)NC(=O)[C@H](CCC(N)=O)NC(=O)[C@@H](NC(=O)[C@@H](NC(=O)[C@@H]1CSSC[C@H](NC(=O)CNC(=O)[C@H](CCCCNC(=O)CCCCCCCCCCCCCCCCC(=O)O)NC(=O)c2ccc3c(c2)C2(OC3=O)c3ccc(N(C)C)cc3Oc3cc(N(C)C)ccc32)C(=O)N[C@@H](CCCNC(=N)N)C(=O)N[C@@H](Cc2ccccc2)C(=O)NCC(=O)N[C@@H]([C@@H](C)O)C(=O)N1)[C@@H](C)O)C(C)C)C(=O)N[C@@H](Cc1ccc(O)cc1)C(=O)N[C@@H](CCC(N)=O)C(=O)N[C@@H](Cc1ccccc1)C(=O)N[C@H](C(=O)N[C@@H](CC(=O)O)C(=O)N[C@@H](CCCCN)C(=O)N[C@@H](CC(=O)O)C(=O)N[C@@H](CCCCN)C(=O)N[C@@H](CC(=O)O)C(=O)N[C@@H](CC(N)=O)C(=O)N[C@H](C(=O)N[C@@H](C)C(=O)N1CCC[C@H]1C(=O)N[C@@H](CCCNC(=N)N)C(=O)N[C@@H](CO)C(=O)N[C@@H](CCCCN)C(=O)N[C@H](C(=O)N[C@@H](CO)C(=O)N1CCC[C@H]1C(=O)N[C@@H](CCC(N)=O)C(=O)NCC(=O)N[C@@H](Cc1ccc(O)cc1)C(N)=O)[C@@H](C)CC)C(C)C)[C@@H](C)O [TAM-5],149,–,–
CC[C@H](C)[C@H](NC(=O)[C@H](CCC(N)=O)NC(=O)[C@H](Cc1c[nH]cn1)NC(=O)[C@H](C)NC(=O)[C@H](CC(C)C)NC(=O)[C@H](CCCCN)NC(=O)[C@H](CCC(N)=O)NC(=O)[C@@H](NC(=O)[C@@H](NC(=O)[C@@H]1CSSC[C@H](NC(=O)CNC(=O)[C@H](CCCCNC(=O)CCCCCCCCCCCCCCCCC(=O)O)NC(=O)c2ccc3c(c2)C2(OC3=O)c3ccc(N(C)C)cc3Oc3cc(N(C)C)ccc32)C(=O)N[C@@H](CCCNC(=N)N)C(=O)N[C@@H](Cc2ccccc2)C(=O)NCC(=O)N[C@@H]([C@@H](C)O)C(=O)N1)[C@@H](C)O)C(C)C)C(=O)N[C@@H](Cc1ccc(O)cc1)C(=O)N[C@@H](CCC(N)=O)C(=O)N[C@@H](Cc1ccccc1)C(=O)N[C@H](C(=O)NCCOCCOCCOCCC(=O)N[C@@H](CC(=O)O)C(=O)N[C@@H](CC(N)=O)C(=O)N[C@H](C(=O)N[C@@H](C)C(=O)N1CCC[C@H]1C(=O)N[C@H]1CCCCNC(=O)C[C@@H](C(=O)N2CCC[C@H]2C(=O)N[C@@H](CCC(N)=O)C(=O)NCC(=O)N[C@@H](Cc2ccc(O)cc2)C(N)=O)NC(=O)[C@H]([C@@H](C)CC)NC(=O)[C@H](CCCCN)NC(=O)[C@H](CO)NC1=O)C(C)C)[C@@H](C)O [TAM-14] (X1-K(C18 diacid)GCRFGTCTVQKLAHQIYQFT[PEG3]DNVAPKSKIDPQGY-NH2; disulfide 3-8; lactam 28-32),> 144,–,–
"CC[C@H](C)[C@H](NC(=O)[C@H](CCC(N)=O)NC(=O)[C@H](Cc1c[nH]cn1)NC(=O)[C@H](C)NC(=O)[C@H](CC(C)C)NC(=O)[C@H](CCCCN)NC(=O)[C@H](CCC(N)=O)NC(=O)[C@@H](NC(=O)[C@@H](NC(=O)[C@@H]1CSSC[C@H](NC(=O)CNC(=O)CN)C(=O)N[C@@H](CCCNC(=N)N)C(=O)N[C@@H](Cc2ccccc2)C(=O)NCC(=O)N[C@@H]([C@@H](C)O)C(=O)N1)[C@@H](C)O)C(C)C)C(=O)N[C@@H](Cc1ccc(O)cc1)C(=O)N[C@@H](CCC(N)=O)C(=O)N[C@@H](Cc1ccccc1)C(=O)N[C@H](C(=O)N[C@@H](CC(=O)O)C(=O)N[C@@H](CCCCN)C(=O)N[C@@H](CC(=O)O)C(=O)N[C@@H](CCCCN)C(=O)N[C@@H](CC(=O)O)C(=O)N[C@@H](CC(N)=O)C(=O)N[C@H](C(=O)N[C@@H](C)C(=O)N1CCC[C@H]1C(=O)N[C@H]1CCCCNC(=O)CC[C@@H](C(=O)N2CCC[C@H]2C(=O)N[C@@H](CCC(N)=O)C(=O)NCC(=O)N[C@@H](Cc2ccc(O)cc2)C(N)=O)NC(=O)[C@H]([C@@H](C)CC)NC(=O)[C@H](CCCCN)NC(=O)[C@H](CO)NC1=O)C(C)C)[C@@H](C)O [Example 3, ((4R,7S,13S,16S,19R)-19-(2-(2-aminoacetamido)acetamido)-13-benzyl-16-(3-guanidinopropyl)-7-((R)-1-hydroxyethyl)-6,9,12,15,18-pentaoxo-1,2-dithia-5,8,11,14,17-pentaazacycloicosane-4-carbonyl)-L-threonyl-ADM(23-43)-((2S,5S,8S,11S,20S)-5-(4-aminobutyl)-20-(λ^2-azaneyl)-8-((S)-sec-butyl)-2-(hydroxymethyl)-3,6,9,14,21-pentaoxo-1,4,7,10,15-pentaazacyclohenicosane-11-carbonyl)-L-prolyl-ADM(50-52)] (H-GGCRFGTCTVQKLAHQIYQFTDKDKDNVAPKSKIEPQGY-NH2; disulfide 3-8; lactam 31-35)",–,93 ± 2,16
